In ChEMBL document CHEMBL1158176, “Flexible computational docking studies of new aminoglycosides targeting RNA 16S bacterial ribosome site” (Eur J Med Chem, 2008):

Test: Binding affinity to bacterial 16S RNA ribosomal A site by surface plasmon technique

Row | Compound | Kd [µM]
1 | NC[C@H]1O[C@H](O[C@H]2[C@@H](NCCNC(=O)[C@H]3O[C@@H](n4ccc(=O)[nH]c4=O)[C@H](O)[C@@H]3O)[C@@H](O)[C@H](N)C[C@@H]2N)[C@H](N)[C@@H](O)[C@@H]1O | 13
2 | NC[C@H]1O[C@H](O[C@H]2[C@@H](NCCNC(=O)[C@H]3O[C@@H](n4ccc(N)nc4=O)[C@H](O)[C@@H]3O)[C@@H](O)[C@H](N)C[C@@H]2N)[C@H](N)[C@@H](O)[C@@H]1O | 79
3 | Cc1cn([C@H]2C[C@H](O)[C@@H](C(=O)NCCN[C@H]3[C@@H](O)[C@H](N)C[C@H](N)[C@H]3O[C@H]3O[C@H](CN)[C@@H](O)[C@H](O)[C@H]3N)O2)c(=O)[nH]c1=O | 9
4 | NC[C@H]1O[C@H](O[C@H]2[C@@H](NCCNC(=O)[C@H]3O[C@@H](n4cnc5c(N)ncnc54)[C@H](O)[C@@H]3O)[C@@H](O)[C@H](N)C[C@@H]2N)[C@H](N)[C@@H](O)[C@@H]1O | 10
5 | Cc1cn([C@@H]2O[C@H](C(=O)NCCCCCCN[C@H]3[C@@H](O)[C@H](N)C[C@H](N)[C@H]3O[C@H]3O[C@H](CN)[C@@H](O)[C@H](O)[C@H]3N)[C@@H](O)[C@H]2O)c(=O)[nH]c1=O | 38
6 | NC[C@H]1O[C@H](O[C@H]2[C@@H](NCCCCCCNC(=O)[C@H]3O[C@@H](n4ccc(N)nc4=O)[C@H](O)[C@@H]3O)[C@@H](O)[C@H](N)C[C@@H]2N)[C@H](N)[C@@H](O)[C@@H]1O | 104
7 | Cc1cn([C@H]2C[C@H](O)[C@@H](C(=O)NCCCCCCN[C@H]3[C@@H](O)[C@H](N)C[C@H](N)[C@H]3O[C@H]3O[C@H](CN)[C@@H](O)[C@H](O)[C@H]3N)O2)c(=O)[nH]c1=O | 56
8 | NC[C@H]1O[C@H](O[C@H]2[C@@H](NCCCCCCNC(=O)[C@H]3O[C@@H](n4cnc5c(N)ncnc54)[C@H](O)[C@@H]3O)[C@@H](O)[C@H](N)C[C@@H]2N)[C@H](N)[C@@H](O)[C@@H]1O | 17
9 | Cc1cn([C@H]2C[C@H](O)[C@@H](CSCCO[C@@H]3O[C@H](CO[C@@H]4O[C@H](CN)[C@@H](O)[C@H](O)[C@H]4N)[C@@H](O)[C@H](O)[C@H]3N)O2)c(=O)[nH]c1=O | 370
10 | NC[C@H]1O[C@@H](OC[C@H]2O[C@@H](SCCCCCCSC[C@H]3O[C@@H](n4ccc(=O)[nH]c4=O)[C@H](O)[C@@H]3O)[C@H](N)[C@@H](O)[C@@H]2O)[C@H](N)[C@@H](O)[C@@H]1O | 1100
11 | NC[C@H]1O[C@@H](OC[C@H]2O[C@@H](OC[C@H]3O[C@@H](n4ccc(=O)[nH]c4=O)[C@H](O)[C@@H]3O)[C@H](N)[C@@H](O)[C@@H]2O)[C@H](N)[C@@H](O)[C@@H]1O | 2000
12 | Cc1cn([C@H]2C[C@H](O)[C@@H](CO[C@@H]3O[C@H](CO[C@@H]4O[C@H](CN)[C@@H](O)[C@H](O)[C@H]4N)[C@@H](O)[C@H](O)[C@H]3N)O2)c(=O)[nH]c1=O | 667
13 | Cc1cn([C@H]2C[C@H](O)[C@@H](CSCCCCCCS[C@@H]3O[C@H](COC4O[C@H](CN)[C@@H](O)[C@H](O)[C@H]4N)[C@@H](O)[C@H](O)[C@H]3O)O2)c(=O)[nH]c1=O (stereo partly specified) | 400
14 | NC[C@H]1O[C@@H](OC[C@H]2O[C@@H](OCCSC[C@H]3O[C@@H](n4ccc(N)nc4=O)[C@H](O)[C@@H]3O)[C@H](N)[C@@H](O)[C@@H]2O)[C@H](N)[C@@H](O)[C@@H]1O | 667
15 | Cc1cn([C@H]2C[C@H](O)[C@@H](CSCCCCCCS[C@@H]3O[C@H](CN)[C@@H](O)[C@H](O)[C@H]3O)O2)c(=O)[nH]c1=O | 117
16 | NC[C@H]1O[C@@H](SCCCCCCSC[C@H]2O[C@@H](n3ccc(=O)[nH]c3=O)[C@H](O)[C@@H]2O)[C@H](N)[C@@H](O)[C@@H]1O | 1250
